Earlier results in patent US10117956B2, “Radiolabeled active targeting pharmaceutical composition and the use thereof” (Institute of Nuclear Energy Research Atomic Energy Council, …, priority 2013, dated 2018).

Conditions: 30 minutes after injection

## O=C[C@H](O)[C@@H](O)[C@H](O)[C@H](O)CF [6-FDG, 6-fluoro-6-deoxy-D-glucose]
  concentration in the blood: 1.11 % ID/g
